Experimental data published in patent US8410302B2, “Methoxyimino compounds and fungicide composition comprising same” (Kyung Nong Corporation, priority 2007, dated 2013).

Key:
Botrytis cinerae = test: Fungicidal activity against cucumber gray mold rot (CGM) disease, control value; type: in vivo; conditions: 100 ppm, cucumber gray mold rot; for pest or weed control at 100 ppm: Botrytis, read-out: CGM control value (C.V.)
Procedure: Botrytis cinerae, which was isolated from cucumber infected thereby, was inoculated on a potato agar medium (PEC) and cultured under a 12L/12D cycle at 25° C. for 15 days to form spore. The spores were scraped, filtered through a gauze and then suspended in Potato Dextrose broth at a concentration of 1×10^6 spore/ml. The spore suspension was sprayed on a cucumber plant having one leaf. The cucumber plant was held in a humidified room at 20° C. for 3 days. L.A. on a leaf was measured to calculate a C.V.

Puccinia recondita = test: Fungicidal activity against wheat leaf rust (WLR) disease, control value; type: in vivo; conditions: wheat leaf rust; for pest or weed control at 2 ppm / pest or weed control at 10 ppm / pest or weed control at 50 ppm / pest or weed control at 100 ppm: read-out: WLR control value (C.V.)
Erysiphae graminis = test: Fungicidal activity against barley powdery mildew (BPM) disease, control value; type: in vivo; conditions: barley powdery mildew; for pest or weed control at 50 ppm / pest or weed control at 100 ppm / pest or weed control at 2 ppm / pest or weed control at 10 ppm: Hordeum vulgare, 168 h, read-out: BPM control value (C.V.)
Rhizoctonia solani AG-1 = test: Fungicidal activity against rice sheath blight (RSB) disease, control value; conditions: for pest or weed control at 100 ppm / pest or weed control at 2 ppm / pest or weed control at 10 ppm / pest or weed control at 50 ppm: Rhizoctonia solani, AG1, in Oryza sativa, read-out: RSB control value (C.V.); for RSB control value (C.V.): 100 ppm, rice sheath blight
[1] = test system: Pyricularia oryzae Carvara KA301; test: whole plant or invertebrate; type: in vivo; conditions: for pest or weed control at 2 ppm / pest or weed control at 10 ppm / pest or weed control at 50 ppm / pest or weed control at 100 ppm: Pyricularia oryzae, read-out: RCB control value (C.V.); for RCB control value (C.V.): rice blast
Phytophthora infestans = test: whole plant or invertebrate; type: in vivo; conditions: for pest or weed control at 2 ppm / pest or weed control at 10 ppm / pest or weed control at 50 ppm / pest or weed control at 100 ppm: Phytophthora infestans, in Solanum lycopersicum, read-out: TLB control value (C.V.); for TLB control value (C.V.): tomato late blight

SMILES | pest or weed control at 100 ppm (Botrytis cinerae) | pest or weed control at 2 ppm (Puccinia recondita; 2 ppm) | pest or weed control at 10 ppm (Puccinia recondita; 10 ppm) | pest or weed control at 50 ppm (Puccinia recondita; 50 ppm) | pest or weed control at 100 ppm (Puccinia recondita; 100 ppm) | pest or weed control at 50 ppm (Erysiphae graminis; 50 ppm) | pest or weed control at 100 ppm (Erysiphae graminis; 100 ppm) | pest or weed control at 100 ppm (Rhizoctonia solani AG-1) | pest or weed control at 2 ppm [1] | pest or weed control at 10 ppm [1] | pest or weed control at 50 ppm [1] | pest or weed control at 100 ppm [1] | pest or weed control at 10 ppm (Phytophthora infestans) | pest or weed control at 50 ppm (Phytophthora infestans) | pest or weed control at 100 ppm (Phytophthora infestans) | CGM control value (C.V.) (Botrytis cinerae) | WLR control value (C.V.) (Puccinia recondita; 100 ppm) | BPM control value (C.V.) (Erysiphae graminis; 100 ppm) | RSB control value (C.V.) (Rhizoctonia solani AG-1) | RCB control value (C.V.) ([1]; 50 ppm) | other results
CNC(=O)/C(=N/OC)c1ccccc1COc1ccc(C=C(F)F)cc1 [Example 10, (E)-2-(2-((4-(2,2-difluorovinyl)phenoxy)methyl)phenyl)-2-methoxyimino-N-methylacetamide] | 50% | 100% | 100% | 100% | 100% | 60% | 98% | 45% | 100% | 100% | 100% | 100% | 100% | 100% | 100% |  |  |  |  |  | pest or weed control at 2 ppm (Phytophthora infestans): 100%
CO/N=C(/C(=O)OC)c1ccccc1COc1cccc(C=C(F)Cl)c1 [Example 11, methyl-(2E)-2-(2-((3-(2-chloro-2-fluorovinyl)phenoxy)methyl)phenyl)-2-methoxyiminoacetate] | 43% |  | 40% | 90% | 100% | 60% | 90% | 30% |  |  | 70% | 95% |  |  | 60% |  |  |  |  |  | 
CNC(=O)/C(=N/OC)c1ccccc1COc1cccc(C=C(F)Cl)c1 [Example 12, (2E)-2-(2-((3-(2-chloro-2-difluorovinyl)phenoxy)methyl)phenyl)-2-methoxyimino-N-methylacetamide] |  |  |  |  |  |  |  |  |  |  |  |  |  |  |  | 40% | 82% | 80% | 15% | 90% | RCB control value (C.V.) ([1]; 100 ppm): 97%; TLB control value (C.V.) (Phytophthora infestans; 50 ppm): 55%; TLB control value (C.V.) (Phytophthora infestans; 100 ppm): 93%
CO/N=C(/C(=O)OC)c1ccccc1COc1ccc(C=C(F)Cl)cc1 [Example 13, methyl-(2E)-2-(2-((4-(2-chloro-2-fluorovinyl)phenoxy)methyl)phenyl)-2-methoxyiminoacetate] | 0% |  |  | 40% | 90% |  | 75% | 67% |  |  | 70% | 95% |  |  | 60% |  |  |  |  |  | 
CNC(=O)/C(=N/OC)c1ccccc1COc1ccc(C=C(F)Cl)cc1 [Example 14, (2E)-2-(2-((4-(2-chloro-2-difluorovinyl)phenoxy)methyl)phenyl)-2-methoxyimino-N-methylacetamide] |  |  |  |  |  |  |  |  |  |  |  |  |  |  |  | 40% | 72% | 60% | 15% | 90% | RCB control value (C.V.) ([1]; 100 ppm): 95%; TLB control value (C.V.) (Phytophthora infestans; 50 ppm): 35%; TLB control value (C.V.) (Phytophthora infestans; 100 ppm): 98%
CO/N=C(/C(=O)OC)c1ccccc1COc1cccc(C=C(Cl)Br)c1 [Example 15, methyl-(2E)-2-(2-((3-(2-bromo-2-chlorovinyl)phenoxy)methyl)phenyl)-2-methoxyiminoacetate] | 50% | 100% | 100% | 100% | 100% | 93% | 95% | 10% | 70% | 100% | 100% | 100% | 10% | 90% | 100% |  |  |  |  |  | pest or weed control at 2 ppm (Erysiphae graminis; 2 ppm): 15%; pest or weed control at 10 ppm (Erysiphae graminis; 10 ppm): 60%
CNC(=O)/C(=N/OC)c1ccccc1COc1cccc(C=C(Cl)Br)c1 [Example 16, (2E)-2-(2-((3-(2-bromo-2-chlorovinyl)phenoxy)methyl)phenyl)-2-methoxyimino-N-methylacetamide] | 65% | 100% | 100% | 100% | 100% | 100% | 100% | 100% | 100% | 100% | 100% | 100% | 95% | 100% | 100% |  |  |  |  |  | pest or weed control at 2 ppm (Erysiphae graminis; 2 ppm): 100%; pest or weed control at 10 ppm (Erysiphae graminis; 10 ppm): 100%; pest or weed control at 2 ppm (Rhizoctonia solani AG-1): 95%; pest or weed control at 10 ppm (Rhizoctonia solani AG-1): 98%; pest or weed control at 50 ppm (Rhizoctonia solani AG-1): 100%; pest or weed control at 2 ppm (Phytophthora infestans): 93%
CO/N=C(/C(=O)OC)c1ccccc1COc1ccc(C=C(Cl)Br)cc1 [Example 17, methyl-(2E)-2-(2-((4-(2-bromo-2-chlorovinyl)phenoxy)methyl)phenyl)-2-methoxyiminoacetate] | 50% | 100% | 100% | 100% | 100% | 93% | 95% | 90% | 70% | 100% | 100% | 100% | 10% | 90% | 100% |  |  |  |  |  | pest or weed control at 2 ppm (Erysiphae graminis; 2 ppm): 35%; pest or weed control at 10 ppm (Erysiphae graminis; 10 ppm): 90%
CNC(=O)/C(=N/OC)c1ccccc1COc1ccc(C=C(Cl)Br)cc1 [Example 18, (2E)-2-(2-((4-(2-bromo-2-chlorovinyl)phenoxy)methyl)phenyl)-2-methoxyimino-N-methylacetamide] | 45% | 100% | 100% | 100% | 100% | 100% | 100% | 100% | 100% | 100% | 100% | 100% | 80% | 100% | 100% |  |  |  |  |  | pest or weed control at 2 ppm (Erysiphae graminis; 2 ppm): 95%; pest or weed control at 10 ppm (Erysiphae graminis; 10 ppm): 98%; pest or weed control at 2 ppm (Rhizoctonia solani AG-1): 90%; pest or weed control at 10 ppm (Rhizoctonia solani AG-1): 98%; pest or weed control at 50 ppm (Rhizoctonia solani AG-1): 100%; pest or weed control at 2 ppm (Phytophthora infestans): 30%
CO/N=C(/C(=O)OC)c1ccccc1CON=C(C)c1cccc(C=C(Cl)Cl)c1 [Example 19, methyl-(E)-2-[[[[[2-[3-(2,2-dichlorovinyl)phenyl](1-methyl)methylidene]amino]oxy]methyl]phenyl]-2-methoxyiminoacetate] |  |  |  |  |  |  |  |  |  |  |  |  |  |  |  | 59% | 100% | 100% | 80% | 100% | WLR control value (C.V.) (Puccinia recondita; 2 ppm): 98%; WLR control value (C.V.) (Puccinia recondita; 10 ppm): 100%; WLR control value (C.V.) (Puccinia recondita; 50 ppm): 100%; BPM control value (C.V.) (Erysiphae graminis; 2 ppm): 100%; BPM control value (C.V.) (Erysiphae graminis; 10 ppm): 100%; BPM control value (C.V.) (Erysiphae graminis; 50 ppm): 100%; RCB control value (C.V.) ([1]; 2 ppm): 98%; RCB control value (C.V.) ([1]; 10 ppm): 100%; RCB control value (C.V.) ([1]; 100 ppm): 100%; TLB control value (C.V.) (Phytophthora infestans; 2 ppm): 80%; TLB control value (C.V.) (Phytophthora infestans; 10 ppm): 92%; TLB control value (C.V.) (Phytophthora infestans; 50 ppm): 100%; TLB control value (C.V.) (Phytophthora infestans; 100 ppm): 100%
CNC(=O)/C(=N/OC)c1ccccc1CON=C(C)c1cccc(C=C(Cl)Cl)c1 [Example 20, (E)-2-[[[[[2-[3-(2,2-dichlorovinyl)phenyl](1-methyl)methylidene]amino]oxy]methyl]phenyl]-2-methoxyimino-N-methylacetamide] |  |  |  |  |  |  |  |  |  |  |  |  |  |  |  | 74% | 100% | 100% | 75% | 100% | WLR control value (C.V.) (Puccinia recondita; 2 ppm): 30%; WLR control value (C.V.) (Puccinia recondita; 10 ppm): 90%; WLR control value (C.V.) (Puccinia recondita; 50 ppm): 98%; BPM control value (C.V.) (Erysiphae graminis; 2 ppm): 100%; BPM control value (C.V.) (Erysiphae graminis; 10 ppm): 100%; BPM control value (C.V.) (Erysiphae graminis; 50 ppm): 100%; RCB control value (C.V.) ([1]; 2 ppm): 90%; RCB control value (C.V.) ([1]; 10 ppm): 97%; RCB control value (C.V.) ([1]; 100 ppm): 100%; TLB control value (C.V.) (Phytophthora infestans; 2 ppm): 98%; TLB control value (C.V.) (Phytophthora infestans; 10 ppm): 100%; TLB control value (C.V.) (Phytophthora infestans; 50 ppm): 100%; TLB control value (C.V.) (Phytophthora infestans; 100 ppm): 100%
